The term AUC(0-t) denotes the area under the concentration-time curve up to a stated or last time point. Low readings indicate less exposure, high ones more exposure. As a reminder, the Cmax is the highest concentration seen after dosing.

The source of these data is patent US20230098944A1, “METHOD OF DECREASING AMYLOID BETA MONOMER LEVELS IN PATIENTS WITH COGNITIVE DECLINE” (Cognition Therapeutics, Inc., priority 2020, published 2023).

Each structure is given as a SMILES string. Where two headings read alike, the source gives them in different places.

In data set [1] the test system is Aβ oligomers. Nature of the data set: Microimmunoelectrode (MIE) measurement of Aβ oligomers in patient CSF after single dose (NCT03522129). Type of data set: in vivo, human. As for the experimental part: (§1) Methods: A Phase 2 clinical trial (NCT03522129) was conducted enrolling patients with mild-to-moderate Alzheimer's disease (MMSE 18-26) into the Randomized, double-blind, placebo-controlled, single dose administration of CT1812 followed by hourly sampling of lumbar CSF via indwelling catheter for 24 hours. The primary objective of the study was to evaluate target engagement of CT1812 treatment by measuring the displacement of Aβ oligomers into cerebrospinal fluid (CSF). The was quantified by a measuring change from the baseline CSF Aβ oligomer concentration after dosing with CT1812 versus placebo. Microimmunoelectrodes (Yuede et al 2016) coated with oligomer-specific antibody, A11 were placed in CSF samples of Alzheimer's disease patient samples to detect soluble Aβ after a single dose of CT1812 (560 mg) or placebo. Results: Microimmunoelectrode (MIE) measurements of Aβ oligomers in CSF show a drug-dependent rise in Aβ oligomers over time.

In data set [2] the test system is Aβ oligomers. Nature of the data set: Native Western Blot (82E1 antibody) measurement of Aβ oligomers in patient CSF (NCT03522129). In kind it is in vivo, human. Background: Immunoblotting shows a protein as a band on a membrane.
The subject of another data set is Aβ 40 and 42 monomers. Kind of data set: Aβ 40 and 42 monomers in patient CSF after single dose (NCT03522129). In kind it is in vivo, human. Particulars: single dose 560 mg, similar in all three patients including placebo. The method, then: as §1, with “[…] Percent change from baseline” for “Results: Microimmunoelectrode (MIE) measurements of Aβ oligomers in CSF show a drug-dependent rise”, “40 and 42 monomers were similar in all three patients (<50% increase). […] CSF Aβ oligomer levels were fit to a linear regression and the significance of the slope difference from zero was determined for each patient (FIG. 4 (measured by microimmunoelectrodes); FIG. 5 (measured by Western Blot)).” for “oligomers over time.”

Data set [3] can be described thus: Plasma and CSF pharmacokinetics from NCT03522129. Particulars: single dose of CT1812 (560 mg); for AUC(0-t) / Cmax / Kp: 560 mg; for Kp: CSF/plasma. Type of data set: in vivo, human.
A further data set has as its system Patients. Kind of data set: ADAS-COG score after 185 days of treatment versus placebo. Type of data set: in vivo, human. The conditions noted are these: day 185, treated at least 6 months (185 days), FIG. 7. An excerpt:
Patients treated for at least 6 months (185 days) with CT1812 were compared with patients who received placebo.

For another data set, the system named is amyloid β monomer. The conditions noted are these: human subjects treated for 28 days; see 62/976,325; cited from earlier work.
The test system of data set [4] is amyloid β oligomers and monomers. Particulars: animal models and preclinical data; cited from earlier work.

For `CC(C)(C)Oc1cc(CCC(C)(C)N2Cc3ccc(S(C)(=O)=O)cc3C2)ccc1O` [CT1812], the “linear slope of CSF Aβ oligomer level over time (MIE)” value with Aβ oligomers [1] (Patients 1 and 3, p<0.001 for each patient, R^2=0.7720 and 0.7898, placebo slope not different from zero) was “significantly non-zero”. Further, in the data set on Aβ oligomers [1] (single dose 560 mg, hourly lumbar CSF for 24 hours, mild-to-moderate Alzheimer's disease patients, not seen in placebo patient), the “Aβ oligomer levels in CSF over time (MIE)” value is recorded as “apparent increase with time”. For the same compound, the “Aβ oligomer increase, percent change from baseline in CSF” value in the data set with Aβ oligomers [1] (two treated patients, single dose 560 mg, no increase in placebo-treated patient, FIG. 4 (MIE), FIG. 5 (Western Blot)) is “more than 200%”. For the same compound, the “linear slope of CSF Aβ oligomer level over time (Western Blot)” value in the data set on Aβ oligomers [2] (Patients 1 and 3, p<0.001 for each patient, R^2=0.9808 and 0.3997, placebo slope not different from zero) is given as “significantly non-zero”. Further, the “Aβ oligomer levels in CSF over time (Western Blot)” value in the data set on Aβ oligomers [2] (single dose 560 mg, hourly lumbar CSF for 24 hours, not seen in placebo patient) is reported as “apparent increase with time”. The “Percent change from baseline in Aβ 40 and 42 monomers (increase)” value with Aβ 40 and 42 monomers is reported as under 50%. Also, the tmax in data set [3] (Plasma, Subject 90003) turned out to be 2.00 h; in data set [3] (human, CSF, Subject 90003, read-out: tmax), 3 h. Further, the exposure AUC(0-t) in data set [3] (human, CSF, Subject 90001) stood at 120 ng·h/mL; in data set [3] (human, CSF, Subject 90003), 46.4 ng·h/mL; in data set [3] (human, plasma, Subject 90001) it was 3160 ng·h/mL; in data set [3] (human, plasma, Subject 90003), 1210 ng·h/mL. Besides, the Cmax is 24.9 ng/mL in data set [3] (human, CSF, Subject 90001); 7.27 ng/mL in data set [3] (human, CSF, Subject 90003); 695 ng/mL in data set [3] (human, plasma, Subject 90001); 250 ng/mL in data set [3] (human, plasma, Subject 90003). Besides, the Kp in data set [3] (human, Subject 90001, read-out: CSF/Plasma Ratio based on AUC0-last) was found to be 0.0381; in data set [3] (human, Subject 90001, read-out: CSF/Plasma Ratio based on Cmax), 0.0358; in data set [3] (human, Subject 90003, read-out: CSF/Plasma Ratio based on AUC0-last), 0.0384; in data set [3] (human, Subject 90003, read-out: CSF/Plasma Ratio based on Cmax), 0.0291. In the data set with Patients, the “difference in Alzheimer's Disease Assessment Score (ADAS-COG) between treated and untreated patients” value is “three-point difference”. The “amyloid β monomer concentration in the cerebral spinal fluid or interstitial fluid” value with amyloid β monomer was “no change”. Also, in data set [4], the “amyloid β oligomer concentration in cerebral spinal fluid and brain interstitial fluid” value was “selectively displace oligomers and increase their concentration”. In data set [4], the “concentration of amyloid β monomers” value is reported as “had not effect”.
